Tested on: 3T3-L1 adipocyte cells
Assay: ability of released insulin to regulate 14C-deoxyglucose uptake
Format: cell-based
Conditions: 14C-deoxyglucose uptake by cultured 3T3-L1 adipocyte cells

Substance: insulin
- biological activity of released insulin: retains its biological activity

Source: US6444217B1, “Drug delivery devices, and methods of use” (University of Washington, priority 2000, dated 2002)
